Reference: PubChem BioAssay AID256 (DTP/NCI, 2004)
“And” between values parts separate entries of the source, which are not always exact repeats. Equal values may be shown once. Inconclusive results and toxic doses are left out. Rule for the calls: active = survival T/C of 150% or more; inactive = T/C below 125% in these data.

System: CD2F1 mice, L1210 leukemia ip, survival T/C
Assay: NCI In Vivo Anticancer Drug Screen. Data for tumor model L1210 Leukemia (intraperitoneal) in CD2F1 (CDF1) mice
Conditions: higher = longer survival
Procedure, shortened: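 Mice carrying a transplanted tumor received test compound or vehicle alone. The value is the measurement in the treated group divided by that in the vehicle-treated control group.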

[1] = endpoint: mean survival time, dose: 50.0 mg/kg/injection, schedule: Q01DX009 (ip), vehicle: saline with Tween-80
[2] = endpoint: mean survival time, dose: 100.0 mg/kg/injection, schedule: Q01DX009 (ip), vehicle: saline with Tween-80
[3] = endpoint: mean survival time, dose: 200.0 mg/kg/injection, schedule: Q01DX009 (ip), vehicle: saline with Tween-80
[4] = endpoint: mean survival time, dose: 400.0 mg/kg/injection, schedule: Q01DX001 (ip), vehicle: saline
[5] = endpoint: mean survival time, dose: 100.0 mg/kg/injection, schedule: Q04DX003 (ip), vehicle: saline with Tween-80
[6] = endpoint: mean survival time, dose: 400.0 mg/kg/injection, schedule: Q01DX009 (ip), vehicle: saline with Tween-80
[7] = endpoint: mean survival time, dose: 100.0 mg/kg/injection, schedule: Q01DX009 (ip), vehicle: Klucel (hydroxypropylcellulose) (HPC)
[8] = endpoint: mean survival time, dose: 200.0 mg/kg/injection, schedule: Q01DX009 (ip), vehicle: Klucel (hydroxypropylcellulose) (HPC)
[9] = endpoint: mean survival time, dose: 100.0 mg/kg/injection, schedule: Q04DX002 (ip), vehicle: saline with Tween-80
[10] = endpoint: mean survival time, dose: 200.0 mg/kg/injection, schedule: Q04DX002 (ip), vehicle: saline with Tween-80
[11] = endpoint: mean survival time, dose: 400.0 mg/kg/injection, schedule: Q04DX002 (ip), vehicle: saline with Tween-80
[12] = endpoint: mean survival time, dose: 12.5 mg/kg/injection, schedule: Q01DX009 (ip), vehicle: saline with Tween-80
[13] = endpoint: mean survival time, dose: 25.0 mg/kg/injection, schedule: Q01DX009 (ip), vehicle: saline with Tween-80
[14] = endpoint: mean survival time, dose: 100.0 mg/kg/injection, schedule: Q01DX001 (ip), vehicle: saline with Tween-80
[15] = endpoint: mean survival time, dose: 200.0 mg/kg/injection, schedule: Q01DX001 (ip), vehicle: saline with Tween-80
[16] = endpoint: mean survival time, dose: 400.0 mg/kg/injection, schedule: Q01DX001 (ip), vehicle: saline with Tween-80
[17] = endpoint: mean survival time, dose: 25.0 mg/kg/injection, schedule: Q04DX002 (ip), vehicle: saline with Tween-80
[18] = endpoint: mean survival time, dose: 50.0 mg/kg/injection, schedule: Q04DX002 (ip), vehicle: saline with Tween-80

Measured: T/C

O=C(O)CC(=O)O.[NH-]CC(O)C[N-]CC(O)CN.[Pt+2] (centres undefined)
inactive: endpoint: median survival time, dose: 10.0 mg/kg/injection, schedule: Q04DX003 (ip), vehicle: distilled water + Tween-80 101 % of control | endpoint: median survival time, dose: 20.0 mg/kg/injection, schedule: Q04DX003 (ip), vehicle: distilled water + Tween-80 101 % of control | endpoint: median survival time, dose: 40.0 mg/kg/injection, schedule: Q04DX003 (ip), vehicle: distilled water + Tween-80 104 % of control | endpoint: median survival time, dose: 66.5 mg/kg/injection, schedule: Q04DX003 (ip), vehicle: distilled water + Tween-80 107 % of control | endpoint: median survival time, dose: 80.0 mg/kg/injection, schedule: Q04DX003 (ip), vehicle: distilled water + Tween-80 106 % of control and 108 % of control | endpoint: median survival time, dose: 133.0 mg/kg/injection, schedule: Q04DX003 (ip), vehicle: distilled water + Tween-80 108 % of control | endpoint: median survival time, dose: 160.0 mg/kg/injection, schedule: Q04DX003 (ip), vehicle: distilled water + Tween-80 119 % of control | endpoint: median survival time, dose: 266.0 mg/kg/injection, schedule: Q04DX003 (ip), vehicle: distilled water + Tween-80 117 % of control | endpoint: median survival time, dose: 320.0 mg/kg/injection, schedule: Q04DX003 (ip), vehicle: distilled water + Tween-80 117 % of control

CCOC(=O)C1C(C(=O)OCC)C(C)(C)C1N(C)C (centres undefined)
inactive: [1] 107 % of control | [2] 98 % of control | [3] 98 % of control

O=C(O)O.[Co]
inactive: [4] 105 % of control

CC1(C)NC(=O)NC1=O
inactive: endpoint: mean survival time, dose: 100.0 mg/kg/injection, schedule: Q01DX001 (ip), vehicle: saline 98 % of control | endpoint: mean survival time, dose: 200.0 mg/kg/injection, schedule: Q01DX001 (ip), vehicle: saline 107 % of control | [4] 107 % of control

COC(=O)/C(=C1/OC(=O)C(c2ccccc2)=C1O)c1ccccc1
inactive: endpoint: mean survival time, dose: 25.0 mg/kg/injection, schedule: Q04DX003 (ip), vehicle: saline with Tween-80 91 % of control | endpoint: mean survival time, dose: 50.0 mg/kg/injection, schedule: Q04DX003 (ip), vehicle: saline with Tween-80 100 % of control | [5] 105 % of control

S=C(NCCSC(=S)Nc1ccccc1)Nc1ccccc1
inactive: [2] 91 % of control | [3] 89 % of control | [6] 106 % of control

COC(=O)C1CCC(N(C)S(=O)(=O)c2ccc(C)cc2)CC1 (centres undefined)
inactive: [7] 100 % of control | [8] 96 % of control | endpoint: mean survival time, dose: 400.0 mg/kg/injection, schedule: Q01DX009 (ip), vehicle: Klucel (hydroxypropylcellulose) (HPC) 92 % of control

ClC(Cl)c1nc2ccccc2[nH]1
inactive: endpoint: mean survival time, dose: 6.25 mg/kg/injection, schedule: Q01DX001 (ip), vehicle: Klucel (hydroxypropylcellulose) (HPC) 89 % of control | endpoint: mean survival time, dose: 12.5 mg/kg/injection, schedule: Q01DX001 (ip), vehicle: Klucel (hydroxypropylcellulose) (HPC) 96 % of control | endpoint: mean survival time, dose: 25.0 mg/kg/injection, schedule: Q01DX001 (ip), vehicle: Klucel (hydroxypropylcellulose) (HPC) 89 % of control

Cc1ccccc1NC(=O)Oc1ccc(C(C)(C)C)cc1
inactive: [9] 97 % of control | [10] 86 % of control | [11] 89 % of control

O=C(O)CSCc1ccc(Cl)cc1Cl
inactive: endpoint: mean survival time, dose: 50.0 mg/kg/injection, schedule: Q01DX009 (ip), vehicle: Klucel (hydroxypropylcellulose) (HPC) 98 % of control | [7] 87 % of control | [8] 93 % of control

O=C(O)C(=O)O.[Ru].c1cnc2c(c1)ccc1cccnc12.c1cnc2c(c1)ccc1cccnc12
inactive: endpoint: mean survival time, dose: 3.13 mg/kg/injection, schedule: Q04DX003 (ip), vehicle: water 95 % of control | endpoint: mean survival time, dose: 6.25 mg/kg/injection, schedule: Q04DX003 (ip), vehicle: water 96 % of control | endpoint: mean survival time, dose: 12.5 mg/kg/injection, schedule: Q04DX003 (ip), vehicle: water 93 % of control | endpoint: mean survival time, dose: 25.0 mg/kg/injection, schedule: Q04DX003 (ip), vehicle: water 93 % of control | endpoint: mean survival time, dose: 50.0 mg/kg/injection, schedule: Q04DX003 (ip), vehicle: water 95 % of control | endpoint: mean survival time, dose: 100.0 mg/kg/injection, schedule: Q04DX003 (ip), vehicle: water 91 % of control | endpoint: mean survival time, dose: 200.0 mg/kg/injection, schedule: Q04DX003 (ip), vehicle: water 90 % of control

Cc1ccc(NC(=O)Nc2ccccc2C(N)=O)cc1C
inactive: [12] 95 % of control | [13] 102 % of control | [1] 95 % of control | [2] 92 % of control | [3] 92 % of control

CC(O)(c1ccccc1)c1ccccc1
inactive: [2] 104 % of control | [3] 102 % of control | [6] 96 % of control

CC(Br)(C(=O)O)C1CCCCC1 (centres undefined)
inactive: [14] 93 % of control | [15] 96 % of control | [16] 99 % of control

COc1cc(CCCCl)cc(OC)c1OC
inactive: [9] 100 % of control | [10] 100 % of control | [11] 103 % of control

CCOC(=O)C1C2CCC(O2)C1C#N (centres undefined)
inactive: [17] 98 % of control | [18] 98 % of control | [9] 98 % of control

CC1(C)CCC2(C)CC(C(=O)O)C(=O)C=C2C1 (centres undefined)
inactive: [14] 100 % of control | [15] 92 % of control | [16] 96 % of control

CCOC(=O)C(CC)C(=O)OCC
inactive: [2] 94 % of control | [3] 93 % of control | [6] 94 % of control

COc1ccccc1NC1=NCCO1
inactive: [17] 105 % of control | [18] 97 % of control | [14] 90 % of control | [9] 94 % of control

Clc1ccc(COc2ccc(Cl)cc2Cn2ccnc2)c(Cl)c1
inactive: [2] 101 % of control | [3] 95 % of control | [6] 98 % of control

CN(C)/N=C\c1ccc([N+](C)(C)C)cc1
inactive: endpoint: mean survival time, dose: 12.5 mg/kg/injection, schedule: Q04DX003 (ip), vehicle: Klucel (hydroxypropylcellulose) (HPC) 103 % of control | endpoint: mean survival time, dose: 25.0 mg/kg/injection, schedule: Q04DX003 (ip), vehicle: Klucel (hydroxypropylcellulose) (HPC) 109 % of control | endpoint: mean survival time, dose: 50.0 mg/kg/injection, schedule: Q04DX003 (ip), vehicle: Klucel (hydroxypropylcellulose) (HPC) 106 % of control

Cc1c[n+]([O-])cc(=O)[nH]1
inactive: [2] 97 % of control | [5] 96 % of control | [3] 97 % of control | endpoint: mean survival time, dose: 200.0 mg/kg/injection, schedule: Q04DX003 (ip), vehicle: saline with Tween-80 100 % of control | [6] 95 % of control | endpoint: mean survival time, dose: 400.0 mg/kg/injection, schedule: Q04DX003 (ip), vehicle: saline with Tween-80 100 % of control

O=C(COc1ccccc1)NC(=S)Nc1ccc([N+](=O)[O-])cc1Cl
inactive: [2] 88 % of control and 89 % of control | [9] 95 % of control | [3] 93 % of control and 94 % of control | [10] 87 % of control | [6] 92 % of control and 93 % of control | [11] 91 % of control

C#CCCCN1CCC2(CC1)C(=O)N(C(=O)N(C)C)CN2c1ccccc1
inactive: [13] 100 % of control | [1] 96 % of control | [2] 97 % of control

O=C(O)CCCCCCCCC(=O)O (tested in a mixture with another compound)
inactive: [1] 100 % of control | [2] 100 % of control | [3] 102 % of control

Cn1/c2cc/c1=C(\c1ccc(S(=O)(=O)O)cc1)c1ccc([n-]1)/C(c1ccc(S(=O)(=O)O)cc1)=c1/cc/c([nH]1)=C(\c1ccc(S(=O)(=O)O)cc1)c1ccc([n-]1)/C=2c1ccc(S(=O)(=O)O)cc1.O.O=S(=O)(O)C(F)(F)F.[Cu+2]
inactive: endpoint: median survival time, dose: 6.25 mg/kg/injection, schedule: Q01DX009 (ip), vehicle: saline 101 % of control | endpoint: median survival time, dose: 12.5 mg/kg/injection, schedule: Q01DX009 (ip), vehicle: saline 104 % of control | endpoint: median survival time, dose: 25.0 mg/kg/injection, schedule: Q01DX009 (ip), vehicle: saline 103 % of control | endpoint: median survival time, dose: 50.0 mg/kg/injection, schedule: Q01DX009 (ip), vehicle: saline 112 % of control | endpoint: median survival time, dose: 100.0 mg/kg/injection, schedule: Q01DX009 (ip), vehicle: saline 103 % of control

Cc1ccc(Cl)c2ccccc12
inactive: [12] 97 % of control | [13] 100 % of control | [1] 97 % of control | [2] 94 % of control

C[C@]12CC[C@H](O)C[C@@]1(O)CC[C@@H]1[C@@H]2CC[C@]2(C)[C@@H](c3ccc(=O)oc3)C[C@H]3O[C@]132
inactive: endpoint: mean survival time, dose: 2.5 mg/kg/injection, schedule: Q01DX009 (ip), vehicle: other 97 % of control | endpoint: mean survival time, dose: 5.0 mg/kg/injection, schedule: Q01DX009 (ip), vehicle: other 92 % of control | endpoint: mean survival time, dose: 10.0 mg/kg/injection, schedule: Q01DX009 (ip), vehicle: other 91 % of control
